Measurements as given in ChEMBL document CHEMBL3046832, “Synthesis of some sulfonamides, disubstituted sulfonylureas or thioureas and some structurally related variants. A class of promising antitumor agents” (2007).

Legend:
Assay type in all cases: functional
SF-268 [1] = assay: Cytotoxicity against Homo sapiens (human) SF268 cells assessed as cellular growth after 48 hr by Alamar blue assay; parameters: concentration or dose not given beside the values
[2] = Cytotoxicity against Homo sapiens (human) ovarian cancer cells after 48 hr by SRB assay; conditions: Cancer cell lines
M14 = assay: Cytotoxicity against Homo sapiens (human) M14 cells after 48 hr by SRB assay; conditions: M14, 48 h
[3] = Cytotoxicity against Homo sapiens (human) colon cancer cells after 48 hr by SRB assay; conditions: Cancer cell lines
EKVX = assay: Cytotoxicity against Homo sapiens (human) EKVX cells after 48 hr by SRB assay
KM12 = assay: Cytotoxicity against Homo sapiens (human) KM12 cells after 48 hr by SRB assay; conditions: KM12, 48 h
OVCAR-3 = assay: Cytotoxicity against Homo sapiens (human) OVCAR3 cells after 48 hr by SRB assay; conditions: OVCAR-3, 48 h
[4] = Cytotoxicity against Homo sapiens (human) non-small cell lung cancer cells after 48 hr by SRB assay; conditions: Cancer cell lines
RXF 393 = assay: Cytotoxicity against Homo sapiens (human) RXF393 cells after 48 hr by SRB assay; conditions: RXF 393, 48 h
NCI-H522 = assay: Cytotoxicity against Homo sapiens (human) NCI-H522 cells after 48 hr by SRB assay; conditions: NCI-H522, 48 h
CCRF-CEM = assay: Cytotoxicity against Homo sapiens (human) CCRF-CEM cells after 48 hr by SRB assay
[5] = Cytotoxicity against Homo sapiens (human) breast cancer cells after 48 hr by SRB assay; conditions: Cancer cell lines
NCI-H460 [6] = assay: Cytotoxicity against Homo sapiens (human) NCI-H460 cells assessed as cellular growth after 48 hr by Alamar blue assay; parameters: concentration or dose not given beside the values
HOP-92 = assay: Cytotoxicity against Homo sapiens (human) HOP92 cells after 48 hr by SRB assay; conditions: HOP-92, 48 h
HT-29 = assay: Cytotoxicity against Homo sapiens (human) HT-29 cells after 48 hr by SRB assay; conditions: HT-29, 48 h
NCI-H23 = assay: Cytotoxicity against Homo sapiens (human) NCI-H23 cells after 48 hr by SRB assay; conditions: NCI-H23, 48 h
SF-268 [7] = assay: Cytotoxicity against Homo sapiens (human) SF268 cells after 48 hr by SRB assay; conditions: SF-268, 48 h
[8] = Cytotoxicity against Homo sapiens (human) NCI-H322 cells after 48 hr by SRB assay; conditions: NCI-H322, 48 h
LOX IMVI = assay: Cytotoxicity against Homo sapiens (human) LOXIMVI cells after 48 hr by SRB assay
[9] = Cytotoxicity against Homo sapiens (human) NCI-ADR-RES cells after 48 hr by SRB assay
NCI-H460 [10] = assay: Cytotoxicity against Homo sapiens (human) NCI-H460 cells after 48 hr by SRB assay; conditions: NCI-H460, 48 h
ACHN = assay: Cytotoxicity against Homo sapiens (human) ACHN cells after 48 hr by SRB assay
RPMI-8226 = assay: Cytotoxicity against Homo sapiens (human) RPMI8226 cells after 48 hr by SRB assay; conditions: RPMI-8226, 48 h
[11] = Cytotoxicity against Homo sapiens (human) leukemia cells after 48 hr by SRB assay; conditions: Leukemia cell
SNB-75 = assay: Cytotoxicity against Homo sapiens (human) SNB75 cells after 48 hr by SRB assay; conditions: SNB-75, 48 h
Hs-578T = assay: Cytotoxicity against Homo sapiens (human) Hs578T cells after 48 hr by SRB assay
SNB-19 = assay: Cytotoxicity against Homo sapiens (human) SNB19 cells after 48 hr by SRB assay; conditions: SNB-19, 48 h
UACC-62 = assay: Cytotoxicity against Homo sapiens (human) UACC62 cells after 48 hr by SRB assay; conditions: UACC-62, 48 h
[12] = Cytotoxicity against Homo sapiens (human) prostate cancer cells after 48 hr by SRB assay; conditions: Cancer cell lines
SK-OV-3 = assay: Cytotoxicity against Homo sapiens (human) SKOV3 cells after 48 hr by SRB assay; conditions: SK-OV-3, 48 h
SK-MEL-28 = assay: Cytotoxicity against Homo sapiens (human) SK-MEL-28 cells after 48 hr by SRB assay; conditions: SK-MEL-28, 48 h
[13] = Cytotoxicity against Homo sapiens (human) renal cancer cells after 48 hr by SRB assay; conditions: Cancer cell lines
MOLT-4 = assay: Cytotoxicity against Homo sapiens (human) MOLT4 cells after 48 hr by SRB assay; conditions: MOLT-4, 48 h
A549 = assay: Cytotoxicity against Homo sapiens (human) A549 cells after 48 hr by SRB assay; conditions: A549, 48 h
IGROV-1 = assay: Cytotoxicity against Homo sapiens (human) IGROV1 cells after 48 hr by SRB assay; conditions: IGROV-1, 48 h
HCT-15 = assay: Cytotoxicity against Homo sapiens (human) HCT15 cells after 48 hr by SRB assay; conditions: HCT-15, 48 h
[14] = Cytotoxicity against Homo sapiens (human) CNS cancer cells after 48 hr by SRB assay; conditions: Cancer cell lines
DU-145 = assay: Cytotoxicity against Homo sapiens (human) DU145 cells after 48 hr by SRB assay; conditions: DU-145, 48 h
786-0 = assay: Cytotoxicity against Homo sapiens (human) 786-0 cells after 48 hr by SRB assay; conditions: 786-0, 48 h
UO-31 = assay: Cytotoxicity against Homo sapiens (human) UO31 cells after 48 hr by SRB assay; conditions: UO-31, 48 h
CAKI-1 = assay: Cytotoxicity against Homo sapiens (human) Caki1 cells after 48 hr by SRB assay; conditions: CAKI-1, 48 h
SK-MEL-5 = assay: Cytotoxicity against Homo sapiens (human) SK-MEL-5 cells after 48 hr by SRB assay; conditions: SK-MEL-5, 48 h
T47D = assay: Cytotoxicity against Homo sapiens (human) T47D cells after 48 hr by SRB assay
SW-620 = assay: Cytotoxicity against Homo sapiens (human) SW620 cells after 48 hr by SRB assay; conditions: SW-620, 48 h
BT-549 = assay: Cytotoxicity against Homo sapiens (human) BT549 cells after 48 hr by SRB assay; conditions: BT-549, 48 h
U-251 = assay: Cytotoxicity against Homo sapiens (human) U251 cells after 48 hr by SRB assay; conditions: U-251, 48 h
HCC 2998 = assay: Cytotoxicity against Homo sapiens (human) HCC2998 cells after 48 hr by SRB assay; conditions: HCC 2998, 48 h

For `O=C(Nc1ccccc1)NS(=O)(=O)c1ccc(N2N=C3c4ccccc4CC3C2c2cccnc2)cc1` (stereo not given), the Activity (SF-268 [1]) was “<=32%”, the GI50 [2] was 48.6 µM and the TGI [2] was 90.8 µM. The GI50 (M14) was 24.9 µM, the GI50 [3] was 26.2 µM and the TGI [3] was 78.7 µM. For the same molecule, the GI50 (EKVX) was 27.8 µM, the GI50 (KM12) was 24.8 µM and the GI50 (OVCAR-3) was 21.6 µM. The GI50 [4] was 30 µM, the TGI [4] was 56.4 µM and the GI50 (RXF 393) was 45.3 µM. It also gave a GI50 (NCI-H522) of 17.7 µM, a GI50 (CCRF-CEM) of 40.9 µM and a GI50 [5] of 42.4 µM. The TGI [5] was 87.8 µM, the Activity (NCI-H460 [6]) was “<=32%” and the GI50 (HOP-92) was 74.9 µM. For the same molecule, the GI50 (HT-29) was 37.9 µM, the GI50 (NCI-H23) was 20.8 µM and the GI50 (SF-268 [7]) was 62.1 µM. The GI50 [8] was 17.3 µM, the GI50 (LOX IMVI) was 15.4 µM and the GI50 [9] was 64.4 µM. The GI50 (NCI-H460 [10]) was 38.5 µM, the GI50 (ACHN) was 23.6 µM and the GI50 (RPMI-8226) was 27.1 µM. It also gave a GI50 [11] of 26.5 µM, a TGI [11] of 91.4 µM and a GI50 (SNB-75) of over 100 µM. For the same molecule, the GI50 (Hs-578T) was 40.7 µM, the GI50 (SNB-19) was 83.9 µM and the GI50 (UACC-62) was 17.8 µM. The GI50 [12] was 36.4 µM, the TGI [12] was 52.1 µM and the GI50 (SK-OV-3) was over 100 µM. The GI50 (SK-MEL-28) was 71.5 µM, the GI50 [13] was 31.7 µM and the TGI [13] was 86.4 µM. The GI50 (MOLT-4) was 11.6 µM, the GI50 (A549) was 29.2 µM and the GI50 (IGROV-1) was 16.2 µM. It also gave a GI50 (HCT-15) of 23.1 µM, a GI50 [14] of 54.8 µM and a TGI [14] of 87.6 µM. The GI50 (DU-145) was 36.6 µM, the GI50 (786-0) was 35.5 µM and the GI50 (UO-31) was 48.8 µM. For the same molecule, the GI50 (CAKI-1) was 26.4 µM, the GI50 (SK-MEL-5) was 23.6 µM and the GI50 (T47D) was 93 µM. It also gave a GI50 (SW-620) of 34 µM, a GI50 (BT-549) of 30.6 µM and a GI50 (U-251) of 31.9 µM. For the same molecule, the GI50 (HCC 2998) was 17.3 µM.
